Assay results: patent publication US20150197492A1, “NOVEL INDENO[1,2-c]QUINOLIN-11-ONE DERIVATIVES, PREPARATION METHOD AND APPLICATION THEREOF” (National Defense Medical Center, priority 2014, published 2015)

Experiments:
Format in all cases: cell-based
human PC-3 cells = assay: Sulforhodamine B (SRB) assay, cytotoxicity against PC-3 cells; conditions: SRB assay, PC-3 cells
How it was run: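 PC-3 cells in 5% FBS were fixed with 10% TCA after 24 h as T0, then treated with compound for 48 h, fixed, stained with 0.4% SRB in 1% acetic acid and solubilized in 10 mmol/L Trizma base. Absorbance was read at 515 nm. GI% = 100−[(Tx−T0)/(C−T0)]×100, and IC50 is the concentration halving total protein.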

CCRF-CEM = assay: cells; conditions: CCRF-CEM (Leukemia), 10 μM, 48 hours
HL-60 (TB) = assay: cells; conditions: HL-60 (TB) (Leukemia), 10 μM, 48 hours
A549/ATCC = assay: cells; conditions: A549/ATCC (Non-Small Cell Lung Cancer), 10 μM, 48 hours
HOP-62 = assay: cells; conditions: HOP-62 (Non-Small Cell Lung Cancer), 10 μM, 48 hours
NCI-H226 = assay: cells; conditions: NCI-H226 (Non-Small Cell Lung Cancer), 10 μM, 48 hours
HCC-2998 = assay: cells; conditions: HCC-2998 (Colon Cancer), 10 μM, 48 hours
HCT-116 = assay: cells; conditions: HCT-116 (Colon Cancer), 10 μM, 48 hours
HCT-15 = assay: cells; conditions: HCT-15 (Colon Cancer), 10 μM, 48 hours
HT29 = assay: cells; conditions: HT29 (Colon Cancer), 10 μM, 48 hours
KM12 = assay: cells; conditions: KM12 (Colon Cancer), 10 μM, 48 hours
SF-268 = assay: cells; conditions: SF-268 (CNS Cancer), 10 μM, 48 hours
SF-295 = assay: cells; conditions: SF-295 (CNS Cancer), 10 μM, 48 hours
SF-539 = assay: cells; conditions: SF-539 (CNS Cancer), 10 μM, 48 hours
U251 = assay: cells; conditions: U251 (CNS Cancer), 10 μM, 48 hours
MALME-3M = assay: cells; conditions: MALME-3M (Melanoma), 10 μM, 48 hours
MDA-MB-435 = assay: cells; conditions: MDA-MB-435 (Melanoma), 10 μM, 48 hours
SK-MEL-28 = assay: cells; conditions: SK-MEL-28 (Melanoma), 10 μM, 48 hours
UACC-257 = assay: cells; conditions: UACC-257 (Melanoma), 10 μM, 48 hours
UACC-62 = assay: cells; conditions: UACC-62 (Melanoma), 10 μM, 48 hours
IGROV1 = assay: cells; conditions: IGROV1 (Ovarian Cancer), 10 μM, 48 hours
NCI/ADR-RES = assay: cells; conditions: NCI/ADR-RES (Ovarian Cancer), 10 μM, 48 hours
A498 = assay: cells; conditions: A498 (Renal Cancer), 10 μM, 48 hours
CAKI-1 = assay: cells; conditions: CAKI-1 (Renal Cancer), 10 μM, 48 hours
DU-145 = assay: cells; conditions: DU-145 (Prostate Cancer), 10 μM, 48 hours
MCF7 = assay: cells; conditions: MCF7 (Breast Cancer), 10 μM, 48 hours
MDA-MB-231/ATCC = assay: cells; conditions: MDA-MB-231/ATCC (Breast Cancer), 10 μM, 48 hours
HS 578T = assay: cells; conditions: HS 578T (Breast Cancer), 10 μM, 48 hours
BT-549 = assay: cells; conditions: BT-549 (Breast Cancer), 10 μM, 48 hours

Row | SMILES | Toxicity (%) (human PC-3 cells) | GI % (10 μM) (human PC-3 cells) [%] | growth percentage (CCRF-CEM) [%] | growth percentage (HL-60 (TB)) [%] | growth percentage (A549/ATCC) [%] | growth percentage (HOP-62) [%] | growth percentage (NCI-H226) [%] | growth percentage (HCC-2998) [%] | growth percentage (HCT-116) [%] | growth percentage (HCT-15) [%] | growth percentage (HT29) [%] | growth percentage (KM12) [%] | growth percentage (SF-268) [%] | growth percentage (SF-295) [%] | growth percentage (SF-539) [%] | growth percentage (U251) [%] | growth percentage (MALME-3M) [%] | growth percentage (MDA-MB-435) [%] | growth percentage (SK-MEL-28) [%] | growth percentage (UACC-257) [%] | further results
1 | CN1CCN(c2nc3ccccc3c3c2-c2ccc(Cl)cc2C3=O)CC1 [SJ-12, 9-Chloro-6-(4-methylpiperazin-1-yl)-11H-indeno[1,2-c]quinolin-11-one] | 0 | 39.4 | 92.44 | 101.15 | 96.43 | 61.42 | 86.17 | 103.21 | 92.78 | 92.83 | 93.76 | 99.06 | 92.35 | 90.01 | 95.23 | 85.86 | 106.59 | 98.43 | 110.81 | 95.34 | growth percentage (UACC-62): 96.67%; growth percentage (IGROV1): 75.03%; growth percentage (NCI/ADR-RES): 88.19%; growth percentage (A498): 72.81%; growth percentage (CAKI-1): 83.81%; growth percentage (DU-145): 102.37%; growth percentage (MCF7): 68.30%; growth percentage (MDA-MB-231/ATCC): 62.53%; growth percentage (HS 578T): 70.47%; growth percentage (BT-549): 82.89%
2 | O=C1c2cc(Cl)ccc2-c2c(N3CCN(C(=O)N4CCCCC4)CC3)nc3ccccc3c21 [SJ-23] | 43 | 100 | 109.87 | 109.78 | 99.12 | 96.39 | 96.06 | 106.23 | 101.67 | 99.35 | 108.65 | 101.58 | 107.51 | 97.83 | 92.98 | 98.15 | 102.62 | 102.57 | 107.03 | 104.23 | growth percentage (UACC-62): 93.92%; growth percentage (IGROV1): 81.63%; growth percentage (NCI/ADR-RES): 107.13%; growth percentage (A498): 104.44%; growth percentage (CAKI-1): 90.50%; growth percentage (DU-145): 114.04%; growth percentage (MCF7): 97.24%; growth percentage (MDA-MB-231/ATCC): 93.54%; growth percentage (HS 578T): 102.06%; growth percentage (BT-549): 105.34%
